# Source: patent US20260285857A1, “BICYCLIC AND HETEROCYCLIC AMIDE COMPOUNDS” (priority 2024, published 2026)
# Read-outs that look alike come from different tables or passages of the source.
# Tested on: immunoglobulin light chain protein WIL-FL T46L
# Assay: Differential scanning fluorimetry (thermal shift) assay
# Type: binding
# [1] = Table B, temperature shift [Tm]compound-[Tm]vehicle, recombinant WIL-FL T46L
# [2] = Table A, temperature shift [Tm]compound-[Tm]vehicle, recombinant WIL-FL T46L
Structure (SMILES),DSF [1],DSF [2],further results
Cc1n[nH]c(C2C3(CNC(=O)C4CC[C@H](C(=O)O)O4)COC2(c2nc4c(C)cc(N5CC[C@](C)(c6ccccc6)C5)cn4n2)C3)n1 (stereo partly shown) [Compound 590],***** (>2.5° C.=*****),–,–
Cc1cc(N2CC[C@](C)(c3cccc(F)c3)C2)cn2nc(C(=O)N3CC[C@@]4(CCN(c5cccc(C(=O)O)n5)C4)C3)nc12 [Compound 755],***** (>2.5° C.=*****),–,–
COC1CNCC1NC(=O)c1nc2c(C)cc(N3CC[C@](C)(c4ccccc4)C3)cn2n1 (stereo partly shown) [Compound 166],–,***** (>2.5° C.=*****),–
CCS(=O)(=O)Nc1n[nH]c(C2C3(CN)COC2(c2nc4c(C)cc(N5CC[C@](C)(c6ccccc6)C5)cn4n2)C3)n1 (stereo partly shown) [Compound 548],***** (>2.5° C.=*****),–,–
"Cc1cc(N2CC3(CC[C@H]3c3cccc(F)c3)C2)cn2nc(C(=O)N3CC[C@@]4(CCN(c5cccc(C(=O)O)n5)C4)C3)nc12 [Compound 736, 6-[(5R)-2-[6-[(7S)-7-(3-fluorophenyl)-2-azaspiro[3.3]heptan-2-yl]-8-methyl-[1,2,4]triazolo[1,5-a]pyridine-2-carbonyl]-2,7-diazaspiro[4.4]nonan-7-yl]pyridine-2-carboxylic acid]",***** (>2.5° C.=*****),–,–
Cc1cc(N2CC[C@](C)(c3ccccc3)C2)cn2nc(C(=O)NC3CNCC3(F)F)nc12 (stereo partly shown) [Compound 150],–,***** (>2.5° C.=*****),–
"Cc1cc(N2CC[C@](C)(c3ccccc3)C2)cn2nc(C34CC(CO3)C4NC3(C#N)CC3)nc12 (stereo partly drawn) [Compound 530, 1-((1-(8-methyl-6-((R)-3-methyl-3-phenylpyrrolidin-1-yl)-[1,2,4]triazolo[1,5-a]pyridin-2-yl)-2-oxabicyclo[2.1.1]hexan-5-yl)amino)cyclopropane-1-carbonitrile]",***** (>2.5° C.=*****),–,–
Cc1cc(N2CC[C@](C)(c3ccccc3)C2)cn2nc(C(=O)NC3CCN(c4ccnc(C(=O)O)c4)C3)nc12 (stereo partly shown) [Compound 277],–,***** (>2.5° C.=*****),–
Cc1cc(N2CC[C@](C)(c3ccccc3)C2)cn2nc(C(=O)NCCC(C)(C)O)nc12 [Compound 130],–,***** (>2.5° C.=*****),–
Cc1cc(N2CC[C@](C)(c3ccccc3)C2)cn2nc(C(=O)N[C@@H]3CN[C@H](C(C)(C)O)C3)nc12 [Compound 162],–,***** (>2.5° C.=*****),–
"Cc1cc(N2CC[C@](C)(c3ccccc3)C2)cn2nc(C(=O)NC3CC4(CCN(c5cccc(C(=O)O)n5)CC4)C3)nc12 [Compound 642, 6-[2-[[8-methyl-6-[(3R)-3-methyl-3-phenyl-pyrrolidin-1-yl]-[1,2,4]triazolo[1,5-a]pyridine-2-carbonyl]amino]-7-azaspiro[3.5]nonan-7-yl]pyridine-2-carboxylic acid]",***** (>2.5° C.=*****),–,–
Cc1cc(N2CC[C@](C)(c3ccccc3)C2)cn2nc(C(=O)NC34COC(C(C)(C)O)(C3)C4)nc12 [Compound 123],–,***** (>2.5° C.=*****),–
Cc1ccc(N2CCC3(CCN(C(=O)c4nc5c(C)cc(N6CC[C@](C)(c7ccccc7)C6)cn5n4)C3)C2)nc1C(=O)O (stereo partly shown) [Compound 627],***** (>2.5° C.=*****),–,–
"Cc1cc(N2CC[C@](C)(c3ccccc3)C2)cn2nc(C(=O)NC3CC[C@]4(CCN(c5cccc(C(=O)O)n5)C4)C3)nc12 (mixture of isomers) [Compound 633, 6-[rac-(5S)-8-[[8-methyl-6-[rac-(3R)-3-methyl-3-phenyl-pyrrolidin-1-yl]-[1,2,4]triazolo[1,5-a]pyridine-2-carbonyl]amino]-2-azaspiro[4.4]nonan-2-yl]pyridine-2-carboxylic acid]",***** (>2.5° C.=*****),–,–
CNC(=O)c1nc2c(C)cc(N3CC[C@](C)(c4cccc(F)c4)C3)cn2n1 [Compound 32],–,–,DSF: ***** (key: 0-0.5° C.=*; >0.5-1 °C =**; >1-1.5° C.=***; >1.5-2.5° C.=****; >2.5° C.=*****)
"Cc1cc(N2CC[C@](C)(c3ccccc3)C2)cn2nc(C34CC(CO3)C4N3CC(C)(C)OC3=O)nc12 (stereo partly drawn) [Compound 529, 5,5-dimethyl-3-[1-[8-methyl-6-[(3R)-3-methyl-3-phenyl-pyrrolidin-1-yl]-[1,2,4]triazolo[1,5-a]pyridin-2-yl]-2-oxabicyclo[2.1.1]hexan-5-yl]oxazolidin-2-one]",***** (>2.5° C.=*****),–,–
